Reference: patent publication US20160318856A1, “Substituted Urea eIF2alpha Kinase Activators” (THE BRIGHAM AND WOMEN'S HOSPITAL, INC., priority 2013, published 2016)
Like-named read-outs stand apart in the source and are kept apart here.

Experiments:
[1] = system: Panc-1; test: cell proliferation (SRB) assay, Panc-1; type: cell-based; conditions: Homo sapiens, Table 7
Description: (§1) Cells were seeded in 96-well plates and maintained for 5 days in the presence of 0.5 to 20 μM of individual compound, and cell proliferation was measured by the sulforhodamine B (SRB) assay as described previously (see, for example, Palakurthi, S. S. et al. Cancer Research 2000, 60(11), 2919-2925). Briefly, at the end of a 5-day treatment, cells were fixed in 10% cold trichloroacetic acid. Cell number was estimated by measuring the remaining bound dye of sulforhodamine B after washing. The percentage of growth was calculated by using the equation: 100×[(T−T0)/(C−T0)], where T and C represent the absorbance in treated and control cultures at Day 5, and T0 at time zero, respectively. If T is less than T0, cell death has occurred and can be calculated from 100×[(T−T0)/T0].
The compounds shown in Table 7 were evaluated using for activation of HRI using the dual luciferase surrogate eIF2α phosphorylation assay (see, for example, Chen, T. et al. Nature Chem Biol 2011, 7, 610-616) and for inhibition of cell proliferation using the SRB assay (see, for example, Palakurthi, S. S. et al. Cancer Res 2000, 60, 2919-2925) as described above.

[2] = system: CRL-2813 human melanoma cancer cells; test: cell proliferation (SRB) assay, CRL-2813; type: cell-based
Description: as §1

[3] = system: eIF2α phosphorylation (eIF2•GTP•Met-tRNAi ternary complex; HRI activation); test: surrogate dual luciferase eIF2α phosphorylation (ternary complex) assay; type: cell-based, human; conditions: for maximal fold induction: Homo sapiens
Excerpt: The dual luciferase expression vector and other plasmids used for these studies were previously described (see, for example, Ziegeler, G. et al. Journal of Biological Chemistry 2010, 285(20), 15408-19). The ternary complex assay, surrogate of eIF2α phosphorylation, has been described elsewhere (see, for example, Chen, T. et al. Nature Chemical Biology 2011, 7(9), 610-6). Briefly, the pBISA vector, which contains seven copies of the tetracycline-regulated transactivator response element (TRE), is flanked on both sides by minimal human cytomegalovirus (CMV) minimal promoters allowing bi-directional transcription and two MCSs (multiple cloning sites). Firefly and renilla luciferases were subcloned into MCS-I and MCS-II, respectively. This plasmid, designated pBISA-DL, transcribes two mRNAs that contain the 90 nucleotide plasmid derived 5′UTR (same sequence in both mRNAs), and the ORF encoding either firefly or renilla luciferase followed by a polyadenylation sequence. This plasmid was further modified by inserting the 5′UTR of ATF-4 mRNA into MCS-I in front of the firefly luciferase mRNA. Transcription from this unit generates an mRNA that contains the firefly luciferase ORF preceded by a 5′UTR composed of 90 nucleotides derived from the plasmid and 267 nucleotides derived from the 5′UTR of ATF-4 mRNA. Transcription from the other unit generates an mRNA that contains the renilla luciferase ORF proceeded only by the 90-nucleotide plasmid-derived sequence in the 5′UTR (pBISA-DL (ATF-4)) (see, for example, Chen, T. et al. Nature Chemical Biology 2011, 7(9), 610-6).
Cells expressing firefly and renilla luciferases were assayed with a dual glow luciferase assay kit, per manufacturer's instruction (Promega Inc., Madison, Wis.). The data calculations were carried out as the ratio of firefly to renilla luciferase signal.
A library of 1900 urea compounds was screened in the surrogate dual luciferase eIF2α phosphorylation (ternary complex) assay. This library was originally assembled and screened for inhibition of sEH by Hammock's group at UC-Davis (see, for example, Chen, T. et al. Nature Chem Biol 2011, 7, 610-616; Ziegeler, G et al. J Biol Chem 2010, 285, 15408-15419). We developed this assay in order to identify compounds that activate HRI, taking advantage of the fact that activated HRI phosphorylates eIF2α thereby reducing the amount of the eIF2•GTP•Met-tRNAi ternary complex that results in inhibition of translation of many mRNAs but paradoxically increases translation of some mRNAs that contain multiple upstream ORF (uORF) in their 5′ untranslated regions (UTRs). In our assay, firefly (F) luciferase mRNA is fused to 5′UTR of activating transcription factor 4 (ATF-4) mRNA that has multiple uORFs while renilla (R) luciferase mRNA is fused to a 5′UTR lacking any uORFs. Compounds that reduce the amount of the ternary complex, such as those activating HRI, would increase F luciferase expression while decreasing the R luciferase expression, resulting in an increased F/R luciferase ratio. To calculate the activity scores, the F/R ratios for every compound-treated wells were normalized to vehicle-treated (DMSO) wells that was arbitrarily set at 1 (F/R=1).

[4] = Homo sapiens, CRL2813, SRB assay, Table 7, read-out: IC50 CRL-2813
[5] = cell proliferation assay, Table 2, cell line not named, read-out: IC50
[6] = Homo sapiens, CRL2813, cell proliferation assay, Table 4, cell line not named, read-out: IC50
[7] = surrogate eIF2α phosphorylation assay, Table 4, read-out: Emax (F/R)

Row | IC50 [1] [µM] | IC50 [2, 4] [µM] | IC50 [2, 5] [µM] | Emax (F/R) ([3]; 7.5 μM compound) | Emax (F/R) ([3]; 15 μM compound) | Emax (F/R) ([3]; 30 μM compound) | IC50 [2, 6] [µM] | SMILES | maximal fold induction ([3]; DMSO = 1, maximum tested concentration 20 μM, read-out: Emax: Maximum activity of compound expressed as fold over vehicle) | C3X: Calculated concentration of compound that will cause three-fold increase in the surrogate eIF2α phosphorylation assay ([3]; Table 7) [µM] | maximal fold induction [3, 7]
1 | 3 | 1.2 | – | – | – | – | – | O=C(Nc1cccc(OC(F)(F)F)c1)N[C@H]1CC[C@H](Oc2ccc(OC(F)(F)F)cc2)CC1 | 14 | 1.3 | –
2 | 10 | 10 | – | – | – | – | – | N#Cc1ccc(NC(=O)N[C@H]2CC[C@H](Oc3ccc(C#N)cc3)CC2)cc1 | – | – | –
3 | > 10 | 7 | – | – | – | – | – | N#Cc1ccc(O[C@H]2CC[C@H](NC(=O)Nc3cccc(C#N)c3)CC2)cc1 | – | – | –
4 | – | – | > 20 | 1.07 | 1.04 | 0.98 | – | O=C(Nc1cccc(Br)c1)N[C@H]1CC[C@H](OCc2c(F)cccc2F)CC1 [II-3m] | – | – | –
5 | – | – | > 20 | 0.96 | 0.99 | 0.96 | – | O=C(Nc1ccccc1Br)N[C@H]1CC[C@H](OCc2c(F)cccc2F)CC1 [II-3o] | – | – | –
6 | – | – | > 20 | 0.76 | 0.85 | 0.73 | – | O=C(Nc1ccc(Br)cc1)N[C@H]1CC[C@H](OCc2c(F)cccc2F)CC1 [II-3p] | – | – | –
7 | – | – | > 20 | 0.69 | 0.75 | 0.72 | – | O=C(Nc1cccc(I)c1)N[C@H]1CC[C@H](OCc2c(F)cccc2F)CC1 [II-4m] | – | – | –
8 | – | – | > 20 | 0.81 | 0.74 | 0.81 | – | O=C(Nc1ccccc1I)N[C@H]1CC[C@H](OCc2c(F)cccc2F)CC1 [II-4o] | – | – | –
9 | – | – | > 20 | 0.76 | 0.82 | 0.67 | – | O=C(Nc1ccc(I)cc1)N[C@H]1CC[C@H](OCc2c(F)cccc2F)CC1 [II-4p] | – | – | –
10 | – | – | > 20 | 1.13 | 1.15 | 1.11 | – | O=C(Nc1cccc(C(F)(F)F)c1)N[C@H]1CC[C@H](OCc2c(F)cccc2F)CC1 [II-5m] | – | – | –
11 | – | – | > 20 | 0.95 | 0.80 | 0.64 | – | O=C(Nc1ccccc1C(F)(F)F)N[C@H]1CC[C@H](OCc2c(F)cccc2F)CC1 [II-5o] | – | – | –
12 | – | – | > 20 | 0.91 | 0.79 | 0.85 | – | O=C(Nc1ccc(C(F)(F)F)cc1)N[C@H]1CC[C@H](OCc2c(F)cccc2F)CC1 [II-5p] | – | – | –
13 | – | – | > 20 | 0.93 | 0.93 | 0.76 | – | O=C(Nc1ccccc1OC(F)(F)F)N[C@H]1CC[C@H](OCc2c(F)cccc2F)CC1 [II-6o] | – | – | –
14 | – | – | > 20 | 0.81 | 0.80 | 0.98 | – | O=C(Nc1ccc(OC(F)(F)F)cc1)N[C@H]1CC[C@H](OCc2c(F)cccc2F)CC1 [II-6p] | – | – | –
15 | – | – | > 20 | 0.82 | 0.89 | 0.81 | – | Cc1cccc(NC(=O)N[C@H]2CC[C@H](OCc3c(F)cccc3F)CC2)c1 [II-7m] | – | – | –
16 | – | – | > 20 | 0.78 | 0.79 | 0.83 | – | Cc1ccccc1NC(=O)N[C@H]1CC[C@H](OCc2c(F)cccc2F)CC1 [II-7o] | – | – | –

Row | IC50 [1] [µM] | IC50 [2, 4] [µM] | IC50 [2, 5] [µM] | Emax (F/R) ([3]; 7.5 μM compound) | Emax (F/R) ([3]; 15 μM compound) | Emax (F/R) ([3]; 30 μM compound) | IC50 [2, 6] [µM] | SMILES | maximal fold induction ([3]; DMSO = 1, maximum tested concentration 20 μM, read-out: Emax: Maximum activity of compound expressed as fold over vehicle) | C3X: Calculated concentration of compound that will cause three-fold increase in the surrogate eIF2α phosphorylation assay ([3]; Table 7) [µM] | maximal fold induction [3, 7]
17 | – | – | > 20 | 0.81 | 0.81 | 0.77 | – | Cc1ccc(NC(=O)N[C@H]2CC[C@H](OCc3c(F)cccc3F)CC2)cc1 [II-7p] | – | – | –
18 | – | – | > 20 | 0.84 | 0.97 | 0.74 | – | COc1cccc(NC(=O)N[C@H]2CC[C@H](OCc3c(F)cccc3F)CC2)c1 [II-8m] | – | – | –
19 | – | – | > 20 | 0.94 | 0.88 | 0.84 | – | COc1ccccc1NC(=O)N[C@H]1CC[C@H](OCc2c(F)cccc2F)CC1 [II-8o] | – | – | –
20 | – | – | > 20 | 0.74 | 0.71 | 0.68 | – | COc1ccc(NC(=O)N[C@H]2CC[C@H](OCc3c(F)cccc3F)CC2)cc1 [II-8p] | – | – | –
21 | – | – | > 20 | 0.96 | 0.76 | 0.94 | – | O=C(Nc1cccc([N+](=O)[O-])c1)N[C@H]1CC[C@H](OCc2c(F)cccc2F)CC1 [II-9m] | – | – | –
22 | – | – | > 20 | 0.96 | 0.90 | 0.74 | – | O=C(Nc1ccccc1[N+](=O)[O-])N[C@H]1CC[C@H](OCc2c(F)cccc2F)CC1 [II-9o] | – | – | –
23 | – | – | > 20 | 0.87 | 0.83 | 0.83 | – | O=C(Nc1ccc([N+](=O)[O-])cc1)N[C@H]1CC[C@H](OCc2c(F)cccc2F)CC1 [II-9p] | – | – | –
24 | – | – | > 20 | 1.01 | 0.73 | 1.06 | – | CSc1cccc(NC(=O)N[C@H]2CC[C@H](OCc3c(F)cccc3F)CC2)c1 [II-10m] | – | – | –
25 | – | – | > 20 | 0.82 | 0.90 | 0.83 | – | CSc1ccccc1NC(=O)N[C@H]1CC[C@H](OCc2c(F)cccc2F)CC1 [II-10o] | – | – | –
26 | – | – | > 20 | 0.94 | 0.98 | 1.07 | – | CSc1ccc(NC(=O)N[C@H]2CC[C@H](OCc3c(F)cccc3F)CC2)cc1 [II-10p] | – | – | –
27 | – | – | > 20 | 0.89 | 0.88 | 0.81 | – | O=C(Nc1ccccc1)N[C@H]1CC[C@H](OCc2c(F)cccc2F)CC1 [II-11] | – | – | –
28 | – | – | – | – | – | – | 13.2 ± 2.3 | O=C(Nc1cccc(C(F)(F)F)c1)NC1CCCCC1 [III-1, 1-Cyclohexyl-3-(3-(trifluoromethyl)phenyl)urea] | – | – | 1.87
29 | – | – | – | – | – | – | > 20 | O=C(Nc1cccc(C(F)(F)F)c1)NC1CCC(O)CC1 (stereo not shown) [III-2, 1-(4-Hydroxycyclohexyl)-3-(3-(trifluoromethyl)phenyl)urea] | – | – | 0.89
30 | – | – | – | – | – | – | > 20 | COC1CCC(NC(=O)Nc2cccc(C(F)(F)F)c2)CC1 (stereo not shown) [III-3, 1-(4-Methoxycyclohexyl)-3-(3-(trifluoromethyl)phenyl)urea] | – | – | 1.16
31 | – | – | – | – | – | – | 3.8 ± 1.2 | O=C(Nc1cccc(C(F)(F)F)c1)NC1CCCC(Oc2ccc(C(F)(F)F)cc2)C1 (stereo not shown) [III-6, 1-(3-(4-(Trifluoromethyl)phenoxy)cyclohexyl)-3-(3-(trifluoromethyl)phenyl)urea] | – | – | 4.52
